Assay results reported in patent US20230355597A1, “COMPOUNDS, COMPOSITIONS, AND METHODS FOR THE TREATMENT AND PREVENTION OF AVIAN PATHOGENIC E. COLI (APEC)” (OHIO STATE INNOVATION FOUNDATION, priority 2018, published 2023).
In brackets after ≈: the same amount, converted by molar mass. Marks after values point to notes of the source that are not given here.

Columns and labels:
APEC O8 = assay type: cell-based, avian pathogenic Escherichia coli (APEC); conditions: APEC O8, M63 media; MIC/MBC
[1] = tested on: intracellular APEC O78 in HD11 cells; test: Intracellular survival assay (cidal SMs); conditions: O78, HD11, 6 h treatment; superscript = multiple of MIC
APEC O2 = assay type: cell-based, avian pathogenic Escherichia coli (APEC); conditions: APEC O2, M63 media; MIC/MBC
[2] = tested on: intracellular APEC O1 in HD11 cells; test: Intracellular survival assay (cidal SMs); conditions: O1, HD11, 6 h treatment; superscript = multiple of MIC
APEC O78 [3] = test: Loss of 260/280 nm absorbing materials assay; assay type: cell-based, avian pathogenic Escherichia coli (APEC); conditions: 2X MBC, 1 h, *P<0.05 vs DMSO
APEC O78 [4] = test: Confocal microscopy bacterial cytological profiling; assay type: cell-based, avian pathogenic Escherichia coli (APEC); conditions: 2X MBC
Experimental: Confocal and scanning electron microscopy. Confocal microscopy was used for bacterial cytological profiling (BCP) to identify the cellular pathways targeted by SMs as described previously. […] After incubation, treated cultures were centrifuged, washed, and resuspended in 100 μL PBS. […] Cultures were then centrifuged, washed, and resuspended in PBS to 1⁄10th volume of the original cultures.

APEC O115 = assay type: cell-based, avian pathogenic Escherichia coli (APEC); conditions: APEC O115, M63 media; MIC/MBC
APEC O2-211 = assay type: cell-based, avian pathogenic Escherichia coli (APEC); conditions: APEC O2-211, M63 media; MIC/MBC
APEC O15 = assay type: cell-based, avian pathogenic Escherichia coli (APEC); conditions: APEC O15, M63 media; MIC/MBC
[5] = tested on: Shiga toxin-producing (STEC) O157 and O26 strains; assay type: cell-based, E. coli; conditions: 100 µM, M63 media
[6] = tested on: intracellular APEC O78 in THP-1 cells; test: Intracellular survival assay (cidal SMs); conditions: O78, THP-1, 6 h treatment; superscript = multiple of MIC
[7] = tested on: intracellular APEC O78 in Caco-2 cells; test: Intracellular survival assay (cidal SMs); conditions: O78, Caco-2, 6 h treatment; superscript = multiple of MIC
APEC O109 = assay type: cell-based, avian pathogenic Escherichia coli (APEC); conditions: APEC O109, M63 media; MIC/MBC
[8] = tested on: intracellular APEC O1 in THP-1 cells; test: Intracellular survival assay (cidal SMs); conditions: O1, THP-1, 6 h treatment; superscript = multiple of MIC
APEC O78 [9] = assay type: cell-based, avian pathogenic Escherichia coli (APEC)
APEC O1 = assay type: cell-based, avian pathogenic Escherichia coli (APEC); conditions: APEC O1, M63 media; MIC/MBC
[10] = tested on: intracellular APEC O2 in Caco-2 cells; test: Intracellular survival assay (cidal SMs); conditions: O2, Caco-2, 6 h treatment; superscript = multiple of MIC
APEC O18 = assay type: cell-based, avian pathogenic Escherichia coli (APEC); conditions: APEC O18, M63 media; MIC/MBC
[11] = tested on: intracellular APEC O1 in Caco-2 cells; test: Intracellular survival assay (cidal SMs); conditions: O1, Caco-2, 6 h treatment; superscript = multiple of MIC
APEC O1-63 = assay type: cell-based, avian pathogenic Escherichia coli (APEC); conditions: APEC O1-63, M63 media; MIC/MBC
[12] = tested on: intracellular APEC O2 in HD11 cells; test: Intracellular survival assay (cidal SMs); conditions: O2, HD11, 6 h treatment; superscript = multiple of MIC
[13] = tested on: intracellular APEC O2 in THP-1 cells; test: Intracellular survival assay (cidal SMs); conditions: O2, THP-1, 6 h treatment; superscript = multiple of MIC
[14] = tested on: biofilm embedded APEC O78; test: MBEC High-throughput assay; assay type: cell-based, avian pathogenic Escherichia coli (APEC); conditions: biofilm embedded APEC O78; superscript = multiple of MIC (footnote)
APEC O78-53 = assay type: cell-based, avian pathogenic Escherichia coli (APEC); conditions: APEC O78-53, M63 media; MIC/MBC
APEC O35 = assay type: cell-based, avian pathogenic Escherichia coli (APEC); conditions: APEC O35, M63 media; MIC/MBC
Rif^r APEC O78 = test: In vivo efficacy of growth inhibitors in APEC infected broiler chickens

## COc1cc(CNCCc2ccc3ccccc3c2)ccc1OCC(O)CN1CCCC1 (stereo not shown) [SM2]
APEC O8
  MBC: 200 µM (≈ 86.9 µg/mL)
  MIC: 100 µM (≈ 43.5 µg/mL)
[1]
  SMs intracellular APEC clearance concentration: 100^a µM
APEC O2
  MBC: 250 µM (≈ 109 µg/mL)
  MIC: 200 µM (≈ 86.9 µg/mL)
[2]
  SMs intracellular APEC clearance concentration: 200b µM
APEC O78 [3]; 260 nm absorbing material in supernatant
  Absorbance 260: 3.71
APEC O78 [3]; 280 nm absorbing material in supernatant
  Absorbance 280: 2.86*
APEC O78 [4]
  cytological profile (confocal, FM4-64 / SYTO-9): membrane pore formers
APEC O115
  MBC: 200 µM (≈ 86.9 µg/mL)
  MIC: 200 µM (≈ 86.9 µg/mL)
APEC O2-211
  MBC: 100 µM (≈ 43.5 µg/mL)
  MIC: 100 µM (≈ 43.5 µg/mL)
APEC O15
  MBC: 100 µM (≈ 43.5 µg/mL)
  MIC: 100 µM (≈ 43.5 µg/mL)
[5]
  activity against STEC O157 and O26 strains: not cidal
[6]
  SMs intracellular APEC clearance concentration: 100^a µM
[7]
  SMs intracellular APEC clearance concentration: 100^a µM
APEC O109
  MBC: 200 µM (≈ 86.9 µg/mL)
  MIC: 100 µM (≈ 43.5 µg/mL)
[8]
  SMs intracellular APEC clearance concentration: 200^b µM
APEC O78 [9]; APEC O78
  MBC relative to MIC: identical to MIC
APEC O78 [9]; APEC O78, M63 media, MIC/MBC
  MIC: 100 µM (≈ 43.5 µg/mL)
APEC O78 [9]; APEC O78, M63 media, cell prints MIC/MBC
  MBC: 100 µM (≈ 43.5 µg/mL)
APEC O1
  MBC: 250 µM (≈ 109 µg/mL)
  MIC: 200 µM (≈ 86.9 µg/mL)
[10]
  SMs intracellular APEC clearance concentration: >200 µM
APEC O18
  MBC: 200 µM (≈ 86.9 µg/mL)
  MIC: 100 µM (≈ 43.5 µg/mL)
[11]
  SMs intracellular APEC clearance concentration: >200 µM
APEC O1-63
  MBC: 250 µM (≈ 109 µg/mL)
  MIC: 200 µM (≈ 86.9 µg/mL)
[12]
  SMs intracellular APEC clearance concentration: 200^b µM
[13]
  SMs intracellular APEC clearance concentration: 100^a µM
[14]
  MBEC: 50^b µM
APEC O78-53
  MBC: 200 µM (≈ 86.9 µg/mL)
  MIC: 100 µM (≈ 43.5 µg/mL)
APEC O35
  MBC: 200 µM (≈ 86.9 µg/mL)
  MIC: 100 µM (≈ 43.5 µg/mL)
Rif^r APEC O78; average of liver, heart, lung and kidney, vs untreated control
  reduction of average APEC load in internal organs: 1.3 logs
Rif^r APEC O78; liver, heart, lung and air-sacs, untreated 6.2
  cumulative lesions score: 5.4
Rif^r APEC O78; oral gavage twice a day, 5 days, untreated mortality (58.34%) normalized to 100%
  reduction of APEC induced mortality: 42.86%
Rif^r APEC O78; untreated control = 100%
  reduction of APEC lesions severity (%), Air-sacs (airsacculitis): 17.7%
  reduction of APEC lesions severity (%), Liver (perihepatitis): 0%
Rif^r APEC O78; vs untreated control
  reduction of APEC load, Heart: 0.8 log CFU/g of tissues
  reduction of APEC load, Kidney: 1.8 log CFU/g of tissues
  reduction of APEC load, Liver: 1.2 log CFU/g of tissues
  reduction of APEC load, Lung: 1.5 log CFU/g of tissues
Rif^r APEC O78; weight of live chickens before necropsy minus weight before treatment
  Body weight gain (BWG): 125.48±34.66^b
